Results: BindingDB's records for doi:10.1021/cb700200w (Novartis, 2008)

Assays:
[1] = biological target: Cyclin-dependent kinase/G2/mitotic-specific cyclin- 1 (Homo sapiens, UniProt P06493); test: Z-LYTE Enzymatic Kinase Assay
Procedure: Enzyme activity was assayed using Z-LYTE Enzymatic Kinase Assay format (Invitrogen Corp., Carlsbad, CA) in the SelectScreen Kinase Profiling Service (Invitrogen Discovery Sciences, Madison, WI).

Aurora kinase A = biological target: T1, Aurora kinase A (Homo sapiens, UniProt O14965); test: Aurora Kinase SPA Assay
T1 sequence (O14965 whole entry): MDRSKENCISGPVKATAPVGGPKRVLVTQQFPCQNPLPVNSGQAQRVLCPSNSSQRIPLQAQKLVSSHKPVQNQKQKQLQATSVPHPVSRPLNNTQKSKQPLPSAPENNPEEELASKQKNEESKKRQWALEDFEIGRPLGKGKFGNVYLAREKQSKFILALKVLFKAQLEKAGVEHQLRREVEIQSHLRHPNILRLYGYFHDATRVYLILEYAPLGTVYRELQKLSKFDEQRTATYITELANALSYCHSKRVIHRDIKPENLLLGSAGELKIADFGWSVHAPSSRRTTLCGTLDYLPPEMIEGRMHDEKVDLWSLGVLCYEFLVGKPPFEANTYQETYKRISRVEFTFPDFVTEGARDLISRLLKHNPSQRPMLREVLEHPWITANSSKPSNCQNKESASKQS
Procedure: The biochemical activity of compounds was determined by incubation with Aurora A and substrates in the presence ATP/[gamma-33P] ATP. After incubation, the reaction was stopped and the phosphorylated substrate was separated from nonincorporated radioactive ATP using SPA beads (Amersham Pharmacia Biotech), counted using TopCount (Packard) to measure substrate-incorporated phosphate.

Chain of Cyclin-dependent kinase/G2/mitotic-specific cyclin- 1 (P06493 whole entry): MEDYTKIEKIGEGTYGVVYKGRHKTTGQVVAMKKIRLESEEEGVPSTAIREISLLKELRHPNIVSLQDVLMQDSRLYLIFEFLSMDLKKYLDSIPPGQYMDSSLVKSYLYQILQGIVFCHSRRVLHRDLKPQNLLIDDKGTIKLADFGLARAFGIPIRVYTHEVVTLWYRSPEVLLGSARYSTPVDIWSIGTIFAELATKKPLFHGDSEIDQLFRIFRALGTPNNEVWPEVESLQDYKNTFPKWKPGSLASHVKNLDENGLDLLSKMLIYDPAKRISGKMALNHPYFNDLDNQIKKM
Chain of Cyclin-dependent kinase/G2/mitotic-specific cyclin- 1 (P14635 whole entry, further chain): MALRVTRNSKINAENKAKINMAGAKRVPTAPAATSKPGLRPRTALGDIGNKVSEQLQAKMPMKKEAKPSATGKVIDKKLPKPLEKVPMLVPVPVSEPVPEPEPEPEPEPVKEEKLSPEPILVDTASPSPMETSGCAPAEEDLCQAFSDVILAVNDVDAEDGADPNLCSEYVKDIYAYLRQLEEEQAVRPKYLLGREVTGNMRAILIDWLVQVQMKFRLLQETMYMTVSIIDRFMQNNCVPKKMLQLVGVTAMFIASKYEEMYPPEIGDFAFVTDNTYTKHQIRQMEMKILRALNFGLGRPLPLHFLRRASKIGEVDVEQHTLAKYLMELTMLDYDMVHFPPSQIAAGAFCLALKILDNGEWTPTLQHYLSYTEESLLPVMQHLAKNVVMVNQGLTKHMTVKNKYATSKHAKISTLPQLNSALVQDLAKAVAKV

IC50 [1]	IC50 (Aurora kinase A; pH 7, 22 °C)	IC50 (Aurora kinase A)	SMILES
4.27 µM	–	–	CNC(=O)c1ccc(Nc2ncc(Br)s2)cc1 [4-[(5-bromo-1,3-thiazol-2-yl)amino]-N-methylbenzamide]
–	–	5.5 µM	O=C(Nc1ncc(Br)s1)c1ccccc1 [N-(5-bromo-1,3-thiazol-2-yl)benzamide]

Further lines, the compound ahead of its results:

SMILES	IC50 [1]	IC50 (Aurora kinase A; pH 7, 22 °C)	IC50 (Aurora kinase A)
Fc1ccc(Nc2ncc(Br)s2)cc1 [5-bromo-N-(4-fluorophenyl)-1,3-thiazol-2-amine]	> 10 µM	0.4 µM	–
Brc1cnc(Nc2cccnc2)s1 [5-bromo-N-(pyridin-3-yl)-1,3-thiazol-2-amine]	–	–	3.6 µM
CCN(CC)CCNC(=O)c1ccc(Nc2ncc(Br)s2)cc1 [4-[(5-bromo-1,3-thiazol-2-yl)amino]-N-[2-(diethylamino)ethyl]benzamide]	–	–	4.52 µM
O=C(O)c1ccc(Nc2ncc(Br)s2)cc1 [4-[(5-bromo-1,3-thiazol-2-yl)amino]benzoic acid]	> 10 µM	0.079 µM	–
